Experimental data reported in PubChem BioAssay AID2060358 (Molecular Pharmacology Branch, DTP, NCI, 2025).
Several values for one entry are separate records, joined by “and”; a condition that tells them apart may be missing. Equal entries are not always repeated.

System: 254851-301-R-J1-PDC spheroids, viability % test/control
Experiment: Anticancer human tumor 254851-301-R-J1-PDC patient-derived colon carcinoma cell line growth inhibition [TAK]
Conditions: spheroids with HUVEC and MSC; for viability, T/C: stronger effect = lower value
Text: Combinatorial screen of targeted agents with TAK-243 and ipatasertib in multi-cell type tumor spheroids
A high-throughput screen of multi-cell type tumor spheroids was designed to identify active combinations of targeted small molecules and TAK-243 or ipatasertib. Complex spheroids include a stromal component modeled by human endothelial cells (HUVEC) and fibroblasts modeled by human mesenchymal stem cells (MSCs). The concentration ranges selected for each drug and investigational agent were based upon clinically achievable concentrations if the clinical Cmax of the agent was known.
Compounds. The drugs and investigational agents: TAK-243 (785004), ipatasertib (767898), everolimus (733504), selumetinib (741078), bortezomib (756655), trametinib (758246), ixazomib (758254), vemurafenib (761431), dabrafenib (764134), sapanisertib (764658), alpelisib (765974), and copanlisib (816437), were obtained from the National Cancer Institute (NCI) Developmental Therapeutics Program Chemical Repository. The FDA-approved anticancer drug set is available from the NCI Developmental Therapeutics Program. […] The stock solutions were prepared in dimethyl sulfoxide (DMSO, Sigma-Aldrich, St. Louis, MO, cat. D2650) at 800-fold the tested concentration and stored at -70 degrees C prior to their use. All drugs and investigational agents were tested over a range starting from a high concentration at or near the clinical Cmax and decreasing in half-log increments. If the clinical Cmax for an agent had not been determined, the highest concentration tested was 10 microM.
NCI60 Cell Culture. NCI60 cell lines were obtained from the NCI Developmental Therapeutics Program Tumor Repository. For each lot of cells, the Repository performed Applied Biosystems AmpFLSTR Identifiler testing with PCR amplification to confirm consistency with the published Identifier STR profile for each cell line. Cells were kept in continuous culture for no more than 20 passages. The optimal seeding densities for each of the cell lines at each time point assessed were determined prior to performing the concentration response studies. Briefly, the NCI60 human tumor lines were grown as monolayers in RPMI 1640 medium supplemented with 10% FBS and 2 mmol/L L-glutamine.
An additional 2 lines were from the NCI60 cell line panel including melanomas, MALME-3M and SK-MEL-2. Pooled donor human umbilical vein endothelial cells (HUVEC, Lonza, cat. CC-2519) and human mesenchymal stem cells (hMSC, Lonza, cat. PT-2501) were purchased from Lonza (Walkersville, MD).
PDMR cell lines were grown in complete medium (DC medium): Dulbecco's modified Eagle's medium (DMEM)/F12 supplemented with 5% fetal bovine serum (FBS), 2 mM L-glutamine, 100 U/mL penicillin and 100 µg/ml streptomycin, 0.4 µg/ml hydrocortisone, 10 ng/ml epidermal growth factor (EGF) recombinant human protein, 24 µg/mL adenine, and 0.1 mg/mL primocin. During culture from frozen stock vials, PDMR cells were cultured in the same medium containing 10 µM Y-27632 (see Table 3). The PDCs were cultured in complete DMEM/F12 media without 10 microM Y-27632 dihydrochloride for at least two passages prior to the screen. The pooled donor HUVEC and hMSC were cultured in endothelial cell growth medium 2 (PromoCell, Heidelberg, Germany, cat. C-22011) and mesenchymal stem cell growth medium 2 (PromoCell, cat. C-28009), respectively. For all experiments, HUVEC and hMSC were used at passages </=5.
For the pre-screen, cell seeding densities were determined from a titration spanning the range from 5,000 to 313 cells per well. The mct-spheroids including 60% malignant cells, 25% HUVEC and 15% MSC dispensed as a mixture into U-bottom Ultra-Low Attachment 384-well plates (Corning, NY)
High-throughput Drug Combination Screening.
Prior to their inoculation into 384-well plates, malignant cells, HUVEC, and hMSC were removed from T flasks using TrypLE express (Thermo Fisher Scientific, cat. 12605036) and harvested by centrifugation for 5 min at 233 x g. […]
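Note: spheroids exposed to drugs for seven days before viability readout.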

Compound | IC50 (curve of compound) | viability, T/C (compound 0.0316 µM) | viability, T/C (compound 0.1 µM) | viability, T/C (compound 0.316 µM) | viability, T/C (compound 1 µM) | viability, T/C (compound 0.000316 µM) | viability, T/C (compound 0.001 µM) | viability, T/C (compound 0.00316 µM) | viability, T/C (compound 0.01 µM) | also measured
CC(C)CC(NC(=O)C(Cc1ccccc1)NC(=O)c1cnccn1)B(O)O (configuration not stated) | > 10 nM |  |  |  |  | 111% and 101% | 98.9% and 100% | 98.5% and 99.1% | 75.7% and 80.8% | viability, T/C (compound 31.6 pM): 118% and 114%; viability, T/C (compound 0.0001 µM): 107%
CC(C)CC(NC(=O)CNC(=O)c1cc(Cl)ccc1Cl)B1OC(=O)CC(CC(=O)O)(C(=O)O)O1 (configuration not stated) | 53.2 nM and 58.1 nM | 78.2% | 18.6% and 24.4% |  |  | 110% and 112% | 110% | 96.8% and 99.7% | 94.7% and 102% | 
CC(C)NCC(C(=O)N1CCN(c2ncnc3c2C(C)CC3O)CC1)c1ccc(Cl)cc1 (configuration not stated) |  |  |  |  |  |  |  |  |  | viability, T/C (compound 0.3 µM): 91.8% [middle of 10 runs]; viability, T/C (compound 0.949 µM): 91.8% [middle of 10 runs]; viability, T/C (compound 3 µM): 95% [middle of 10 runs]; viability, T/C (compound 9.49 µM): 91.9% [middle of 10 runs]; viability, T/C (compound 30 µM): 86% [middle of 10 runs]; IC50 (compound alone, run of 02/28/2020): > 30000 nM; IC50 (compound alone, run of 03/19/2020): > 30000 nM
COC1CC2CCC(C)C(O)(O2)C(=O)C(=O)N2CCCCC2C(=O)OC(C(C)CC2CCC(OCCO)C(OC)C2)CC(=O)C(C)C=C(C)C(O)C(OC)C(=O)C(C)CC(C)C=CC=CC=C1C (configuration not stated) | > 100 nM | 96% and 85.4% | 98.1% and 84% |  |  | 114% and 108% | 109% and 92% | 101% and 89.6% | 101% and 91.6% | 
COc1c(OCCCN2CCOCC2)ccc2c3n(c(=NC(=O)c4cnc(N)nc4)nc12)CCN3 | > 1000 nM | 87.8% and 82.2% | 78% and 71.7% | 75.6% and 65.8% | 59.5% and 56.5% |  |  | 110% and 106% | 96.2% and 96.4% | 
Cn1cnc2c(F)c(Nc3ccc(Br)cc3Cl)c(C(=O)NOCCO)cc21 | 1510 nM and 1760 nM |  |  |  |  |  |  |  |  | viability, T/C (compound 0.00949 µM): 119% and 114%; viability, T/C (compound 0.03 µM): 120% and 117%; viability, T/C (compound 0.0949 µM): 105% and 117%; viability, T/C (compound 0.3 µM): 103% and 98.6%; viability, T/C (compound 0.949 µM): 76.3% and 84.4%; viability, T/C (compound 3 µM): 12.5% and 22.5%

Now from value to compound, other results behind:

IC50 (curve of compound) | Compound | viability, T/C (compound 0.0316 µM) | viability, T/C (compound 0.1 µM) | viability, T/C (compound 0.316 µM) | viability, T/C (compound 1 µM) | viability, T/C (compound 0.000316 µM) | viability, T/C (compound 0.001 µM) | viability, T/C (compound 0.00316 µM) | viability, T/C (compound 0.01 µM) | also measured
18.7 nM and 17 nM | CC(=O)Nc1cccc(-n2c(=O)n(C3CC3)c(=O)c3c(Nc4ccc(I)cc4F)n(C)c(=O)c(C)c32)c1 |  |  |  |  |  |  |  |  | viability, T/C (compound 94.9 pM): 117% and 114%; viability, T/C (compound 0.0003 µM): 114% and 116%; viability, T/C (compound 0.000949 µM): 105% and 107%; viability, T/C (compound 0.003 µM): 117% and 99%; viability, T/C (compound 0.00949 µM): 97.5% and 83.9%; viability, T/C (compound 0.03 µM): 16.8% and 18.9%
> 10000 nM | CC(C)(C)c1nc(-c2cccc(NS(=O)(=O)c3c(F)cccc3F)c2F)c(-c2ccnc(N)n2)s1 | 116% and 118% | 105% | 92.3% and 86.4% | 82.1% and 82.5% |  |  |  |  | viability, T/C (compound 3.16 µM): 86.8% and 82.2%; viability, T/C (compound 10 µM): 80.3% and 77.6%
42.5 nM and 40.3 nM | CC(C)n1nc(-c2ccc3oc(N)nc3c2)c2c(N)ncnc21 | 55.7% and 52.2% | 34.5% and 34.2% |  |  | 125% and 110% | 104% and 109% | 89.8% and 90.4% | 76.5% and 81.7% | 
> 100000 nM | CCCS(=O)(=O)Nc1ccc(F)c(C(=O)c2c[nH]c3ncc(-c4ccc(Cl)cc4)cc23)c1F |  |  | 109% and 106% | 93.3% and 90.5% |  |  |  |  | viability, T/C (compound 3.16 µM): 84.6% and 79.4%; viability, T/C (compound 10 µM): 72.3% and 77.4%; viability, T/C (compound 31.6 µM): 73.7% and 71.4%; viability, T/C (compound 100 µM): 63.9% and 73.8%
> 10000 nM | Cc1nc(NC(=O)N2CCCC2C(N)=O)sc1-c1ccnc(C(C)(C)C(F)(F)F)c1 (configuration not stated) | 123% and 110% | 103% and 110% | 95.7% and 91.7% | 92.6% and 92.3% |  |  |  |  | viability, T/C (compound 3.16 µM): 84% and 79.1%; viability, T/C (compound 10 µM): 70.8% and 71.9%
